Source: PMC2721690 (2009)
Blank lines part the entries; values can stand above or below the molecule they belong to.

Columns and labels:
Assay in all cases: ITC
[1] = test system: GRA(A21G/U75C) (RNA, riboswitch) GGACAUGUAAUCGCGUGGAUAUGGCACGCAAGUUUCUACCGGGCACCGUAAAUGUCCGAUCAUGUCC; details: 100 mM KCl, 10 mM MgCl2; 50 mM K-HEPES, pH 7.5, 30 °C; apparent
[2] = test system: GRA(A21U/U75A) (RNA, riboswitch) GGACAUUUAAUCGCGUGGAUAUGGCACGCAAGUUUCUACCGGGCACCGUAAAUGUCCGAUAAUGUCC; details: 100 mM KCl, 10 mM MgCl2; 50 mM K-HEPES, pH 7.5, 30 °C; apparent
[3] = test system: GR (xpt-pbuX guanine riboswitch) (RNA, riboswitch) GGACAUAUAAUCGCGUGGAUAUGGCACGCAAGUUUCUACCGGGCACCGUAAAUGUCCGACUAUGUCC; details: 100 mM KCl, 10 mM MgCl2
[4] = test system: GRA (GR C74U) (RNA, riboswitch) GGACAUAUAAUCGCGUGGAUAUGGCACGCAAGUUUCUACCGGGCACCGUAAAUGUCCGAUUAUGUCC; details: 100 mM KCl, 10 mM MgCl2; for KD: apparent
[5] = test system: GR(A21G/U75C) (RNA, riboswitch) GGACAUGUAAUCGCGUGGAUAUGGCACGCAAGUUUCUACCGGGCACCGUAAAUGUCCGACCAUGUCC; details: 100 mM KCl, 10 mM MgCl2; 50 mM K-HEPES, pH 7.5, 30 °C; apparent
[6] = test system: GR(A21U/U75A) (RNA, riboswitch) GGACAUUUAAUCGCGUGGAUAUGGCACGCAAGUUUCUACCGGGCACCGUAAAUGUCCGACAAUGUCC; details: 100 mM KCl, 10 mM MgCl2; 50 mM K-HEPES, pH 7.5, 30 °C; apparent
[7] = 50 mM K-HEPES, pH 7.5, 30 °C, no detectable binding
[8] = data not shown, text says "GR or GRA"
[9] = 50 mM K-HEPES, pH 7.5, 30 °C, apparent

SMILES: Nc1ncnc2[nH]cnc12
- KD [1]: 6.0 ± 1.1 µM
- KD [2]: 2.1 ± 0.19 µM
- binding [3, 7]: no
- KD ([4]; 50 mM K-HEPES, pH 7.5, 30 °C): 0.47 ± 0.04 µM

SMILES: c1coc(CNc2ncnc3[nH]cnc23)c1
- binding [4, 8]: no

SMILES: Nc1nc2[nH]cnc2c(=O)[nH]1
- binding [4, 7]: no

SMILES: Nc1nc(Br)c2[nH]cnc2n1
- KD [3, 9]: 2.1 ± 0.6 µM
- KD ([4]; 50 mM K-HEPES, pH 7.5, 30 °C): 2.7 ± 1.2 µM

SMILES: Nc1nc(=S)c2[nH]cnc2[nH]1
- KD [3, 9]: 0.073 µM

SMILES: CNc1nc2[nH]cnc2c(=O)[nH]1
- binding ([3]; 50 mM K-HEPES, pH 7.5, 30 °C, data not shown): no

SMILES: Nc1nc(F)nc2[nH]cnc12
- KD ([4]; 50 mM K-HEPES, pH 7.5, 30 °C): 4.0 ± 1.1 µM

SMILES: Nc1nc(OCc2ccccc2)c2[nH]cnc2n1
- binding [3, 8]: no

SMILES: CSc1nc(N)nc2[nH]cnc12
- binding [3, 8]: no

SMILES: COc1nc(N)nc2[nH]cnc12
- KD [3, 9]: 23 ± 6 µM
- KD ([4]; 50 mM K-HEPES, pH 7.5, 30 °C): 20 ± 6 µM

Further lines, results first:

- KD [3, 9]: 0.89 ± 0.06 µM
- KD ([4]; 50 mM K-HEPES, pH 7.5, 30 °C): 0.72 ± 0.04 µM
- KD [5]: 24 ± 6.0 µM
SMILES: Nc1nc(Cl)c2[nH]cnc2n1

- binding [4, 7]: no
SMILES: O=c1[nH]c(=O)c2[nH]cnc2[nH]1

- KD [6]: 3.3 ± 0.32 µM
- binding ([3]; pH 7.5 to 6.0, no change, apparent): yes
- binding [4, 7]: no
- KD [5]: 9.5 ± 0.22 µM
SMILES: O=c1[nH]cnc2nc[nH]c12

- KD [3, 9]: 4.1 ± 0.6 µM
- KD [5]: 13 ± 1.1 µM
SMILES: Nc1nc(N)c2[nH]cnc2n1

- KD [3, 9]: 4.4 ± 1.2 µM
SMILES: Nc1ncc2[nH]cnc2n1
